From US12421270B2, “Oligosaccharide, preparation method therefor, composition thereof and use thereof” (YANTAI DONGCHENG BIOCHEMICALS CO., LTD, priority 2018, dated 2025)

Legend:
Format in all cases: biochemical
platelet-poor plasma [1] = assay: APTT assay (activated partial thrombin time), anticoagulant activity test; conditions: 37° C., fibrin formation time
Procedure: (§1) Oligosaccharide compounds of the present application, J1 (a compound of formula J, in which Y=Na, q=1, R is azido, and ? is in β configuration), J2 (a compound of formula J, in which Y=Na, q=2, R is azido, and ? is in β configuration), J3 (a compound of formula J, in which Y=Na, q=3, R is azido, and ? is in β configuration), and J4 (a compound of formula J, in which Y=Na, q=4, R is azido, and ? is in β configuration) were assayed for anticoagulant activity, including activated partial thrombin time (APTT), prothrombin time (PT) and thrombin time (TT).
(§2) The whole experiment was carried out according to the instruction of the APTT kit. Firstly, 20 ul of platelet-poor plasma and 5 ul of the solution to be tested (control or sample solution) were mixed into a test cup and incubated in preheating zone at 37° C. for 3 min. Then 25 ul of APTT reagent was added to the mixed system, and then continued to incubate at 37° C. for 3 min. Next, the test cup was moved to the test zone, and 25 ul of calcium chloride solution preheated for 5 min was added. At the same time, recording of fibrin formation time was immediately initiated, and when the experiment was completed, the fibrin formation time was read from the coagulation analyzer.
(§3) Results of the assays are as follows (data in the table represent the concentration required to double APTT/PT/TT): […]

platelet-poor plasma [2] = assay: PT assay (prothrombin time), anticoagulant activity test; conditions: 37° C., fibrin formation time
Procedure: as §1
as §2, with “PT” for “APTT”, “Then” for “Then 25 ul of APTT reagent was added to the mixed system, and then continued to incubate at 37° C. for 3 min. Next,”, “50” for “25”, “of” for “of calcium chloride solution”, “PT reagent” for “for 5 min”, “added (preheating time is longer than 10 min, but not more than 30 min).” for “added.”
as §3

platelet-poor plasma [3] = assay: TT assay (thrombin time), anticoagulant activity test; conditions: 37° C., fibrin formation time, last column of table
Procedure: as §1
as §2, with “TT” for “APTT”, “Then” for “Then 25 ul of APTT reagent was added to the mixed system, and then continued to incubate at 37° C. for 3 min. Next,”, “50” for “25”, “of” for “of calcium chloride solution”, “TT reagent” for “for 5 min”, “added (preheating time is longer than 10 min, but not more than 30 min).” for “added.”
as §3

Substance: azido{(2,4-di-O-sulfo-α-L-fucosyl)-(1→3)-(β-D-glucopyranosyluronic acid)-(1→3)-(4,6-di-O-sulfo-2-deoxy-2-N-acetamino-β-D-galactopyranosyl)-(1→4)-[(2,4-di-O-sulfo-α-L-fucosyl)-(1→3)-(β-D-glucopyranosyluronic acid)-(1→3)-(4,6-di-O-sulfo-2-deoxy-2-N-acetamido-β-D-galactopyranosyl)]} decasodium salt [Compound J1]
- APTT (concentration required to double APTT) (platelet-poor plasma [1]): 120.39 µg/mL
- PT (concentration required to double PT) (platelet-poor plasma [2]): >128 µg/mL
- Concentration required to double TT (platelet-poor plasma [3]): >128 µg/mL
